# Assay results reported in patent EP3634580B1, “COMPOSITIONS COMPRISING LACTULOSE FOR MAINTAINING OR IMPROVING GUT HEALTH IN HUMANS” (Fresenius Kabi Austria GmbH, priority 2017, dated 2018).
# Tested on: colon microbiota of human origin
# Experiment: TNO Intestinal Model (TIM-2), in vitro model of the proximal colon: sodium hydroxide consumption
# Format: cell-based
# Conditions: for Cumulative sodium hydroxide consumption: mean of n = 2
# Description: Crystalline lactulose was administered daily for 5 days to the TNO Intestinal Model (TIM-2), an in vitro model of the proximal colon. NaOH consumption, short-chain fatty acids (SCFA) production, ammonia production as well as relative abundance of microbiota were analyzed.
# The substance administered in this study was lactulose crystals (S.C.M. Società Chimica Mugello S.r.l., Vicchio, Italy). Experiments without the addition of lactulose served as negative control.
# The TNO Intestinal Model (TIM-2) is a dynamic in vitro model of the proximal colon. The TIM-2 system was inoculated with a highly metabolically active colon microbiota of human origin. In the system the following standardized conditions were simulated: body temperature; pH in the lumen of the proximal colon (pH 5.8); delivery of a substrate from the 'ileum' (SIEM; Standardized Ileum Efflux Medium); mixing and transport of the intestinal contents; anaerobiosis; absorption of water and absorption of fermentation products, metabolites and other low molecular weight compounds (via a semipermeable membrane inside the colon model).
# SIEM simulates material passing the ileocecal valve in humans. It contained the major non-digestible carbohydrates (pectin, xylan, arabinogalactan, amylopectin, starch) found in a normal western diet as well as protein (bactopepton, casein), ox-bile, Tween 80 as well as vitamins and minerals. SIEM was added to the system at a speed of 2.5 mL/h and the speed of the dialysis liquid was 1.5 mL/min. During the experiment, the intestinal contents were mixed continuously by the peristaltic movements of the TIM-2 system. In order to simulate the transit of the chime from proximal to distal colon, 25 mL of the lumen was removed every 24 h and discarded.
# Before performing each experiment, the system was inoculated with a standardized microbiota of human origin. This standardized microbiota was prepared using fecal donations from a group of 4 healthy volunteers (3 females, 1 male, age 38.8 ± 3.9 years; BMI (body mass index) 24.2 ± 1.5 kg/m^2). Individuals provided signed informed consent before participation, were non-smokers and had not used antibiotics, prebiotics, probiotics or laxatives within 1 month before the stool donation.
# At the start of the adaptation period the microbiota was allowed to adapt to the model conditions and SIEM for 16 h. After the adaptation period the 120 h test period started in which lactulose was added to TIM-2 once daily.
# Lactulose was added to the system at daily doses of 2 g, 3 g, 4 g, and 5 g lactulose. Each dose as well as the control experiment was studied in duplicate (n = 2). The test period of the TIM-2 experiments lasted 120 h (5 consecutive days).
# The pH was kept at a value of 5.8 by automatic titration with 2 M NaOH, the consumption of NaOH was monitored.
structure (smiles),measurement,setting,value
"OC[C@H]1O[C@@H](O[C@@H]2[C@@H](CO)OC(O)(CO)[C@H]2O)[C@H](O)[C@@H](O)[C@H]1O (mixture of isomers) [Lactulose, lactulose]",use of NaOH (in words),"daily doses of 2 g, 3 g, 4 g, 5 g, 120 h test period, versus control",dose dependent increased use of NaOH
same,Cumulative sodium hydroxide consumption,"lactulose 2 g daily, 0 h, control 19",19 mL
same,Cumulative sodium hydroxide consumption,"lactulose 2 g daily, 24 h, control 48",58 mL
same,Cumulative sodium hydroxide consumption,"lactulose 2 g daily, 48 h, control 71",89 mL
same,Cumulative sodium hydroxide consumption,"lactulose 2 g daily, 72 h, control 90",115 mL
same,Cumulative sodium hydroxide consumption,"lactulose 2 g daily, 96 h, control 107",139 mL
same,Cumulative sodium hydroxide consumption,"lactulose 2 g daily, 120 h, control 125",162 mL
same,Cumulative sodium hydroxide consumption,"lactulose 3 g daily, 0 h, control 19",20 mL
same,Cumulative sodium hydroxide consumption,"lactulose 3 g daily, 24 h, control 48",65 mL
same,Cumulative sodium hydroxide consumption,"lactulose 3 g daily, 48 h, control 71",105 mL
same,Cumulative sodium hydroxide consumption,"lactulose 3 g daily, 72 h, control 90",136 mL
same,Cumulative sodium hydroxide consumption,"lactulose 3 g daily, 96 h, control 107",169 mL
same,Cumulative sodium hydroxide consumption,"lactulose 3 g daily, 120 h, control 125",202 mL
same,Cumulative sodium hydroxide consumption,"lactulose 4 g daily, 0 h, control 19",20 mL
same,Cumulative sodium hydroxide consumption,"lactulose 4 g daily, 24 h, control 48",72 mL
same,Cumulative sodium hydroxide consumption,"lactulose 4 g daily, 48 h, control 71",113 mL
same,Cumulative sodium hydroxide consumption,"lactulose 4 g daily, 72 h, control 90",151 mL
same,Cumulative sodium hydroxide consumption,"lactulose 4 g daily, 96 h, control 107",185 mL
same,Cumulative sodium hydroxide consumption,"lactulose 4 g daily, 120 h, control 125",223 mL
same,Cumulative sodium hydroxide consumption,"lactulose 5 g daily, 0 h, control 19",18 mL
same,Cumulative sodium hydroxide consumption,"lactulose 5 g daily, 24 h, control 48",69 mL
same,Cumulative sodium hydroxide consumption,"lactulose 5 g daily, 48 h, control 71",117 mL
same,Cumulative sodium hydroxide consumption,"lactulose 5 g daily, 72 h, control 90",157 mL
same,Cumulative sodium hydroxide consumption,"lactulose 5 g daily, 96 h, control 107",193 mL
same,Cumulative sodium hydroxide consumption,"lactulose 5 g daily, 120 h, control 125",223 mL
